Experimental data taken from US20260159497A1, “SOLID FORMS OF A COMPLEMENT FACTOR B INHIBITOR” (Novartis Pharma AG, priority 2022, published 2026).

Key:
Type in all cases: physicochemical
[1] = Grinding and wet granulation
Description: Method: Granulate was obtained in solid-state forms. […] Dry the wet-cake under vacuum or at atmospheric pressure. Evaluate solid form and degree of crystallinity by e.g. XRPD and/or DSC.

Flow properties = assay: Flow properties
Description: See U.S. Pat. No. 11,642,315.

[2] = Dynamic vapor sorption (DVS) mass change; settings: for Mass change by DVS, Desorption (%) / Mass change by DVS, Sorption (%): Table 5, 25 degree C., based on dry weight; for Mass change by DVS, 1st Desorption (%) / Mass change by DVS, 1st Sorption (%) / Mass change by DVS, 2nd Desorption (%) / Mass change by DVS, 2nd Sorption (%): Table 6
Description: [table] The mass change by DVS isotherm (2 cycles 40-0-95-0-40% RH) are in the tables below. The mass change is based on the dry weight of each.

Compound: COc1cc(C)c2[nH]ccc2c1CN1CCC2(C[C@H]1c1ccc(C(=O)O)cc1)CC(F)(F)C2.Cc1ccc(S(=O)(=O)O)cc1 [Form B, (S)-4-(2,2-difluoro-7-((5-methoxy-7-methyl-1H-indol-4-yl)methyl)-7-azaspiro[3.5]nonan-6-yl)benzoic acid p-toluene sulfonate]
- crystallinity from XRPD pattern after grinding ([1]; after grinding): crystallinity decrease
- form change after grinding and wet granulation ([1]; dry grinding (2 min and 5 min) and wet granulation (water and ethanol)): did not lead to any form change
- bulk density (Flow properties): good bulk density
- flowability (Flow properties): good flowability
- water sorption and desorption behavior [2]: reversible water sorption and desorption behavior with no hysteresis
- maximum water uptake in DVS ([2]; 95% RH at 25° C.): 2.67%
- moisture absorbed by DVS (absorbs up to) ([2]; 95% RH at 25° C.): up to 2.7%
- Mass change by DVS, Desorption (%) ([2]; 0% RH): 0.00%
- Mass change by DVS, Sorption (%) ([2]; 0% RH): 0.00%
- Mass change by DVS, Desorption (%) ([2]; 10% RH): 1.11%
- Mass change by DVS, Sorption (%) ([2]; 10% RH): 1.08%
- Mass change by DVS, Desorption (%) ([2]; 20% RH): 1.66%
- Mass change by DVS, Sorption (%) ([2]; 20% RH): 1.64%
- Mass change by DVS, Desorption (%) ([2]; 30% RH): 1.93%
- Mass change by DVS, Sorption (%) ([2]; 30% RH): 1.92%
- Mass change by DVS, Desorption (%) ([2]; 40% RH): 2.10%
- Mass change by DVS, Sorption (%) ([2]; 40% RH): 2.09%
- Mass change by DVS, Desorption (%) ([2]; 50% RH): 2.22%
- Mass change by DVS, Sorption (%) ([2]; 50% RH): 2.21%
- Mass change by DVS, Desorption (%) ([2]; 60% RH): 2.32%
- Mass change by DVS, Sorption (%) ([2]; 60% RH): 2.31%
- Mass change by DVS, Desorption (%) ([2]; 70% RH): 2.39%
- Mass change by DVS, Sorption (%) ([2]; 70% RH): 2.38%
- Mass change by DVS, Desorption (%) ([2]; 80% RH): 2.46%
- Mass change by DVS, Sorption (%) ([2]; 80% RH): 2.45%
- Mass change by DVS, Desorption (%) ([2]; 90% RH): 2.54%
- Mass change by DVS, Sorption (%) ([2]; 90% RH): 2.54%
- Mass change by DVS, Desorption (%) ([2]; 95% RH): 2.62%
- Mass change by DVS, Sorption (%) ([2]; 95% RH): 2.62%
- Mass change by DVS, 1st Desorption (%) ([2]; DVS at 25 degree C., 0% RH): 0.00%
- Mass change by DVS, 1st Sorption (%) ([2]; DVS at 25 degree C., 0% RH): 0.00%
- Mass change by DVS, 2nd Desorption (%) ([2]; DVS at 25 degree C., 0% RH): −0.01%
- Mass change by DVS, 2nd Sorption (%) ([2]; DVS at 25 degree C., 0% RH): −0.01%
- Mass change by DVS, 1st Desorption (%) ([2]; DVS at 25 degree C., 10% RH): 1.13%
- Mass change by DVS, 1st Sorption (%) ([2]; DVS at 25 degree C., 10% RH): 1.11%
- Mass change by DVS, 2nd Desorption (%) ([2]; DVS at 25 degree C., 10% RH): 1.13%
- Mass change by DVS, 2nd Sorption (%) ([2]; DVS at 25 degree C., 10% RH): 1.11%
- Mass change by DVS, 1st Desorption (%) ([2]; DVS at 25 degree C., 20% RH): 1.70%
- Mass change by DVS, 1st Sorption (%) ([2]; DVS at 25 degree C., 20% RH): 1.69%
- Mass change by DVS, 2nd Desorption (%) ([2]; DVS at 25 degree C., 20% RH): 1.70%
- Mass change by DVS, 2nd Sorption (%) ([2]; DVS at 25 degree C., 20% RH): 1.68%
- Mass change by DVS, 1st Desorption (%) ([2]; DVS at 25 degree C., 30% RH): 1.98%
- Mass change by DVS, 1st Sorption (%) ([2]; DVS at 25 degree C., 30% RH): 1.97%
- Mass change by DVS, 2nd Desorption (%) ([2]; DVS at 25 degree C., 30% RH): 1.98%
- Mass change by DVS, 2nd Sorption (%) ([2]; DVS at 25 degree C., 30% RH): 1.97%
- Mass change by DVS, 1st Desorption (%) ([2]; DVS at 25 degree C., 40% RH): 2.16%
- Mass change by DVS, 1st Sorption (%) ([2]; DVS at 25 degree C., 40% RH): 2.15%
- Mass change by DVS, 2nd Desorption (%) ([2]; DVS at 25 degree C., 40% RH): 2.16%
- Mass change by DVS, 2nd Sorption (%) ([2]; DVS at 25 degree C., 40% RH): 2.15%
- Mass change by DVS, 1st Sorption (%) ([2]; DVS at 25 degree C., 50% RH): 2.28%
- Mass change by DVS, 2nd Desorption (%) ([2]; DVS at 25 degree C., 50% RH): 2.29%
- Mass change by DVS, 1st Sorption (%) ([2]; DVS at 25 degree C., 60% RH): 2.37%
- Mass change by DVS, 2nd Desorption (%) ([2]; DVS at 25 degree C., 60% RH): 2.38%
- Mass change by DVS, 1st Sorption (%) ([2]; DVS at 25 degree C., 70% RH): 2.45%
- Mass change by DVS, 2nd Desorption (%) ([2]; DVS at 25 degree C., 70% RH): 2.47%
- Mass change by DVS, 1st Sorption (%) ([2]; DVS at 25 degree C., 80% RH): 2.53%
- Mass change by DVS, 2nd Desorption (%) ([2]; DVS at 25 degree C., 80% RH): 2.54%
- Mass change by DVS, 1st Sorption (%) ([2]; DVS at 25 degree C., 90% RH): 2.60%
- Mass change by DVS, 2nd Desorption (%) ([2]; DVS at 25 degree C., 90% RH): 2.61%
- Mass change by DVS, 1st Sorption (%) ([2]; DVS at 25 degree C., 95% RH): 2.67%
- Mass change by DVS, 2nd Desorption (%) ([2]; DVS at 25 degree C., 95% RH): 2.67%
- Mass change by DVS, 1st Desorption (%) ([2]; DVS at 40 degree C., 0% RH): 0.00%
- Mass change by DVS, 1st Sorption (%) ([2]; DVS at 40 degree C., 0% RH): 0.00%
- Mass change by DVS, 2nd Desorption (%) ([2]; DVS at 40 degree C., 0% RH): −0.01%
- Mass change by DVS, 2nd Sorption (%) ([2]; DVS at 40 degree C., 0% RH): −0.01%
- Mass change by DVS, 1st Desorption (%) ([2]; DVS at 40 degree C., 10% RH): 0.97%
- Mass change by DVS, 1st Sorption (%) ([2]; DVS at 40 degree C., 10% RH): 0.96%
- Mass change by DVS, 2nd Desorption (%) ([2]; DVS at 40 degree C., 10% RH): 0.97%
- Mass change by DVS, 2nd Sorption (%) ([2]; DVS at 40 degree C., 10% RH): 0.95%
- Mass change by DVS, 1st Desorption (%) ([2]; DVS at 40 degree C., 20% RH): 1.61%
